Reference: patent US8247211B2, “Glycopeptide antibiotics” (American Cyanamid Company, priority 2001, dated 2012)
≈ marks a conversion by molar mass, not a printed value.

Legend:
Staphylococcus sp. = experiment: In vitro antibacterial evaluation: minimum inhibitory concentration (MIC), broth dilution method; assay type: cell-based; conditions: broth dilution, 18 hours at 35° C.
Method in brief: (§1)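 Susceptibility determined by NCCLS-recommended broth dilution (M7-A2), Muller-Hinton II […]. Concentration span 64-0.06 μg/mL, inoculum 5×10^5 CFU/mL. Isolates include strains resistant to methicillin, penicillin and/or vancomycin.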

Enterococcus sp. = experiment: as above; assay type: cell-based
Method in brief: as §1

Escherichia coli = experiment: as above; assay type: cell-based; conditions: strain GC 4560
Method in brief: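 Values are minimum inhibitory concentrations, meaning the smallest antibiotic concentration that stops growth of the organism. They come from broth dilution in Muller-Hinton II […] per NCCLS guidance (M7-A2), using 5×10^5 CFU/mL and concentrations from 64 to 0.06 μg/mL.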

Streptococcus sp. = experiment: as above; assay type: cell-based
Method in brief: as §1

[1] = Anatomic pathology (heart and kidney histopathology) in mice; assay type: in vivo, CD-1 mice; conditions: 20 mg/kg intravenously daily for 9 days, microscopic histopathology on day 10
Method in brief: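 Histopathology on H&E-stained, paraffin-embedded sections, subjectively scored (slight, mild, moderate, marked, severe) relative to untreated controls. Dosing: glycopeptide antibiotics 20 mg/kg intravenously once daily ×9 days in 20-day-old CD-1 mice, n=5 per group including vehicle.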

[2] = tested on: Staphylococcus aureus-SMITH (GC 4543); experiment: Acute lethal infection in mice (ED50); assay type: in vivo; conditions: female CD-1 mice, intraperitoneal challenge, intravenous dose 30 min. after infection, 7 day survival ratios
Method in brief: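 Groups of five female CD-1 mice per dose got intravenous antibiotic in saline or 5% dextrose half an hour after intraperitoneal infection sufficient to kill controls within 24-48 hr. Seven-day survival data from three experiments were combined to derive ED50.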

[3] = assay type: in vivo; conditions: mice, 20 mg/kg intravenously daily for 9 days, serum on day 10
Description: 20-day-old CD-1 mice were divided into a vehicle control group (5 mice) and a treatment group (5 mice). Samples of glycopeptide antibiotics were administered at 20 mg/kg intravenously daily for 9 days. Animals were necropsied on day 10 Sera were analyzed for BUN (blood urea nitrogen), creatinine, AST (aspartic aminotransferase), and ALT (alanine aminotransferase) by routine, standard, automated methods using an Hitachi 747 chemistry analyzer.

## CC(c1ccccc1)C1NC(=O)CNC(=O)C(CO)NC(=O)C(C(O)C2CN(Cc3ccc(-c4ccccc4)cc3)C(=N)N2C2OC(CO)C(O)C(O)C2O)NC(=O)C(C(O)C2CNC(=NCc3ccc(-c4ccccc4)cc3)N2Cc2ccc(-c3ccccc3)cc2)NC(=O)C(Cc2ccc(OC3OC(CO)C(OC4OC(CO)C(O)C(O)C4O)C(O)C3O)cc2)NC1=O (stereo not drawn) [Example 66]
Staphylococcus sp.
  MIC Coagulase Negative Staphylococcus (GC 4547): 4 µg/mL (≈ 2.23 µM)
  MIC Coagulase Negative Staphylococcus (GC 4548): 8 µg/mL (≈ 4.46 µM)
  MIC Coagulase Negative Staphylococcus (GC 4549): 4 µg/mL (≈ 2.23 µM)
  MIC Coagulase Negative Staphylococcus (GC 4551): 8 µg/mL (≈ 4.46 µM)
  MIC Coagulase Negative Staphylococcus (GC 6257): 4 µg/mL (≈ 2.23 µM)
  MIC Staphylococcus aureus (ATCC 29213): 8 µg/mL (≈ 4.46 µM)
  MIC Staphylococcus aureus (GC 1131): 16 µg/mL (≈ 8.92 µM)
  MIC Staphylococcus aureus (GC 3051): 8 µg/mL (≈ 4.46 µM)
  MIC Staphylococcus aureus (GC 3053): 8 µg/mL (≈ 4.46 µM)
  MIC Staphylococcus aureus (GC 4541): 8 µg/mL (≈ 4.46 µM)
  MIC Staphylococcus aureus (GC 4542): 8 µg/mL (≈ 4.46 µM)
  MIC Staphylococcus aureus (GC 4544): 8 µg/mL (≈ 4.46 µM)
  MIC Staphylococcus aureus (GC 4545): 4 µg/mL (≈ 2.23 µM)
  MIC Staphylococcus aureus SMITH (GC 4543): 8 µg/mL (≈ 4.46 µM)
  MIC Staphylococcus haemolyticus (GC 4546): 4 µg/mL (≈ 2.23 µM)
Staphylococcus sp.; strain ATCC 29213
  MIC Staphylococcus aureus (ATCC 29213): 8 µg/mL (≈ 4.46 µM)
Staphylococcus sp.; strain GC 1131
  MIC Staphylococcus aureus (GC 1131): 16 µg/mL (≈ 8.92 µM)
Staphylococcus sp.; strain GC 3051
  MIC Staphylococcus aureus (GC 3051): 8 µg/mL (≈ 4.46 µM)
Staphylococcus sp.; strain GC 3053
  MIC Staphylococcus aureus (GC 3053): 8 µg/mL (≈ 4.46 µM)
Staphylococcus sp.; strain GC 4541
  MIC Staphylococcus aureus (GC 4541): 8 µg/mL (≈ 4.46 µM)
Staphylococcus sp.; strain GC 4542
  MIC Staphylococcus aureus (GC 4542): 8 µg/mL (≈ 4.46 µM)
Staphylococcus sp.; strain GC 4544
  MIC Staphylococcus aureus (GC 4544): 8 µg/mL (≈ 4.46 µM)
Staphylococcus sp.; strain GC 4545
  MIC Staphylococcus aureus (GC 4545): 4 µg/mL (≈ 2.23 µM)
Staphylococcus sp.; strain GC 4547
  MIC Coagulase Negative Staphylococcus (GC 4547): 4 µg/mL (≈ 2.23 µM)
Staphylococcus sp.; strain GC 4548
  MIC Coagulase Negative Staphylococcus (GC 4548): 8 µg/mL (≈ 4.46 µM)
Staphylococcus sp.; strain GC 4549
  MIC Coagulase Negative Staphylococcus (GC 4549): 4 µg/mL (≈ 2.23 µM)
Staphylococcus sp.; strain GC 4551
  MIC Coagulase Negative Staphylococcus (GC 4551): 8 µg/mL (≈ 4.46 µM)
Staphylococcus sp.; strain GC 6257
  MIC Coagulase Negative Staphylococcus (GC 6257): 4 µg/mL (≈ 2.23 µM)
Staphylococcus sp.; strain SMITH GC 4543
  MIC Staphylococcus aureus-SMITH (GC 4543): 8 µg/mL (≈ 4.46 µM)
Enterococcus sp.; Enterococcus avium (GC 4558), broth dilution, 18 hours at 35° C.
  MIC Enterococcus avium (GC 4558): 4 µg/mL (≈ 2.23 µM)
Enterococcus sp.; Enterococcus faecalis (ATCC 29212), broth dilution, 18 hours at 35° C.
  MIC Enterococcus faecalis (ATCC 29212): 16 µg/mL (≈ 8.92 µM)
Enterococcus sp.; Enterococcus faecalis (GC 2242), broth dilution, 18 hours at 35° C.
  MIC Enterococcus faecalis (GC 2242): 16 µg/mL (≈ 8.92 µM)
Enterococcus sp.; Enterococcus faecalis (GC 2691), broth dilution, 18 hours at 35° C.
  MIC Enterococcus faecalis (GC 2691): 32 µg/mL (≈ 17.8 µM)
Enterococcus sp.; Enterococcus faecalis (GC 3059), broth dilution, 18 hours at 35° C.
  MIC Enterococcus faecalis (GC 3059): 32 µg/mL (≈ 17.8 µM)
Enterococcus sp.; Enterococcus faecalis (GC 4552), broth dilution, 18 hours at 35° C.
  MIC Enterococcus faecalis (GC 4552): 32 µg/mL (≈ 17.8 µM)
Enterococcus sp.; Enterococcus faecalis (GC 4553), broth dilution, 18 hours at 35° C.
  MIC Enterococcus faecalis (GC 4553): 8 µg/mL (≈ 4.46 µM)
Enterococcus sp.; Enterococcus faecalis (GC 4554), broth dilution, 18 hours at 35° C.
  MIC Enterococcus faecalis (GC 4554): 64 µg/mL (≈ 35.7 µM)
Enterococcus sp.; Enterococcus faecalis (GC 6189), broth dilution, 18 hours at 35° C.
  MIC Enterococcus faecalis (GC 6189): 32 µg/mL (≈ 17.8 µM)
Enterococcus sp.; Enterococcus faecium (GC 2243), broth dilution, 18 hours at 35° C.
  MIC Enterococcus faecium (GC 2243): 8 µg/mL (≈ 4.46 µM)
Enterococcus sp.; Enterococcus faecium (GC 4556), broth dilution, 18 hours at 35° C.
  MIC Enterococcus faecium (GC 4556): 32 µg/mL (≈ 17.8 µM)
Enterococcus sp.; Enterococcus faecium (GC 4557), broth dilution, 18 hours at 35° C.
  MIC Enterococcus faecium (GC 4557): 4 µg/mL (≈ 2.23 µM)
Enterococcus sp.; strain ATCC 29212
  MIC Enterococcus faecalis (ATCC 29212): 16 µg/mL (≈ 8.92 µM)
Enterococcus sp.; strain GC 2242
  MIC Enterococcus faecalis (GC 2242): 16 µg/mL (≈ 8.92 µM)
Enterococcus sp.; strain GC 2243
  MIC Enterococcus faecium (GC 2243): 8 µg/mL (≈ 4.46 µM)
Enterococcus sp.; strain GC 2691
  MIC Enterococcus faecalis (GC 2691): 32 µg/mL (≈ 17.8 µM)
Enterococcus sp.; strain GC 3059
  MIC Enterococcus faecalis (GC 3059): 32 µg/mL (≈ 17.8 µM)
Enterococcus sp.; strain GC 4552
  MIC Enterococcus faecalis (GC 4552): 32 µg/mL (≈ 17.8 µM)
Enterococcus sp.; strain GC 4553
  MIC Enterococcus faecalis (GC 4553): 8 µg/mL (≈ 4.46 µM)
Enterococcus sp.; strain GC 4554
  MIC Enterococcus faecalis (GC 4554): 64 µg/mL (≈ 35.7 µM)
Enterococcus sp.; strain GC 4556
  MIC Enterococcus faecium (GC 4556): 32 µg/mL (≈ 17.8 µM)
Enterococcus sp.; strain GC 4557
  MIC Enterococcus faecium (GC 4557): 4 µg/mL (≈ 2.23 µM)
Enterococcus sp.; strain GC 4558
  MIC Enterococcus avium (GC 4558): 4 µg/mL (≈ 2.23 µM)
Enterococcus sp.; strain GC 6189
  MIC Enterococcus faecalis (GC 6189): 32 µg/mL (≈ 17.8 µM)
Escherichia coli
  MIC Escherichia coli (GC 4560): 4 µg/mL (≈ 2.23 µM)
Streptococcus sp.; Streptococcus agalactiae (GC 4564), broth dilution, 18 hours at 35° C.
  MIC Streptococcus agalactiae (GC 4564): 32 µg/mL (≈ 17.8 µM)
Streptococcus sp.; Streptococcus pneumoniae (ATCC 6301), broth dilution, 18 hours at 35° C.
  MIC Streptococcus pneumoniae (ATCC 6301): 32 µg/mL (≈ 17.8 µM)
Streptococcus sp.; Streptococcus pneumoniae (GC 1894), broth dilution, 18 hours at 35° C.
  MIC Streptococcus pneumoniae (GC 1894): 32 µg/mL (≈ 17.8 µM)
Streptococcus sp.; Streptococcus pneumoniae (GC 4565), broth dilution, 18 hours at 35° C.
  MIC Streptococcus pneumoniae (GC 4565): 64 µg/mL (≈ 35.7 µM)
Streptococcus sp.; Streptococcus pyogenes (GC 4563), broth dilution, 18 hours at 35° C.
  MIC Streptococcus pyogenes (GC 4563): 16 µg/mL (≈ 8.92 µM)
Streptococcus sp.; strain ATCC 6301
  MIC Streptococcus pneumoniae (ATCC 6301): 32 µg/mL (≈ 17.8 µM)
Streptococcus sp.; strain GC 1894
  MIC Streptococcus pneumoniae (GC 1894): 32 µg/mL (≈ 17.8 µM)
Streptococcus sp.; strain GC 4563
  MIC Streptococcus pyogenes (GC 4563): 16 µg/mL (≈ 8.92 µM)
Streptococcus sp.; strain GC 4564
  MIC Streptococcus agalactiae (GC 4564): 32 µg/mL (≈ 17.8 µM)
Streptococcus sp.; strain GC 4565
  MIC Streptococcus pneumoniae (GC 4565): 64 µg/mL (≈ 35.7 µM)
[1]
  Anatomical Pathology (Day 10), Heart: 0
  Anatomical Pathology (Day 10), Kidney: 0
[2]
  median effective dose (ED50), Staphylococcus aureus-SMITH (GC 4543): >8
[3]
  Clinical Chemistry (Day 10) % of Control, ALT: 182%
  Clinical Chemistry (Day 10) % of Control, AST: 147%
